From publication PMC7865387, “Artemether-Loaded Zein Nanoparticles: An Innovative Intravenous Dosage Form for the Management of Severe Malaria” (International Journal of Molecular Sciences, 2021)

Experiments:
[1] = cited from earlier work
[2] = In vitro release study (sample and separate method); type: physicochemical; settings: PBS pH 7.4, 37 °C, sink conditions; n = 3
Experimental: The dissolution profile of artemether-loaded zein nanoparticles was studied by the “sample and separate” method. In brief, artemether-loaded zein nanoparticle powders containing 6 mg artemether were put in 100 mL phosphate buffered saline (PBS) of pH 7.4. The study was performed under sink conditions at 37 ± 0.5 °C with 150 rpm stirring. The beaker was covered with parafilm to minimize water loss via evaporation. In total, 1 mL samples were withdrawn at selected time points (1/12, 1/6, 1/4, 1/2, 1, 2, 3, 4, 5, 6, 24 h). Samples were centrifuged at 10,800 rpm for 30 min and the supernatants were analyzed by HPLC in the same way as drug content. Then, 1 mL PBS at 37 °C was added after each sampling to maintain sink condition. The experiment was repeated 3 times to ensure consistency. Raw artemether was used as control. Mean values and standard deviations were subsequently calculated.

[3] = system: red blood cells (RBCs); assay: In vitro hemolytic test; type: cell-based; settings: artemether 2 mg/mL in 5% DMSO; 4% v/v rat RBCs, 37 °C, 1 h; positive control Triton X 100
Experimental: This test was performed to examine the hemolytic potential of artemether-loaded zein nanoparticles and the formulation ingredients on red blood cells (RBCs). Freshly collected rat blood was centrifuged at 1500× g for 10 min at 4 °C. The plasma was collected for other purpose. The remaining RBCs were washed with PBS and then centrifuged at 1500× g at 4 °C for 5 min. After two repeats of such procedures, the RBCs were diluted 25 times with PBS to make a 4% v/v RBCs dispersion. Such RBCs were kept at 4 °C and used within 24 h. The impact of artemether-loaded zein nanoparticles containing 2 mg/mL artemether, raw artemether in 5% v/v aqueous DMSO solution (2 mg/mL), 5% v/v aqueous DMSO solution, sodium caseinate (7.5 mg/mL) solution, artemether (2 mg/mL) together with sodium caseinate (7.5 mg/mL) solution was assessed. PBS and 1% v/v Triton-X 100 solution were assessed by adding 1 mL of the test solutions each to 1 mL of the 4% v/v RBCs dispersion. Each sample was incubated with the RBCs at 37 °C for 1 h and then centrifuged at 1500× g for 10 min. The absorbance of the supernatant was taken at 550 nm with U-2900 UV spectrophotometer (Hitachi, Japan). Percentage haemolysis was calculated as follows:(3) Hemolysis (%)=AbsorbanceTest group−AbsorbancePBS/AbsorbanceTriton−X100−AbsorbancePBS×100%

[4] = design: method as in PMID 21914160; settings: intravenous artesunate, clinical practice; cited from earlier work

**Q.** Which “isoelectric point (pI)” value [1] does the source give for sodium caseinate here?
**A.** 4.5

**Q.** With Zein as the molecule, how does the “isoelectric point (pI)” value [1] read?
**A.** 6.2

**Q.** What does the source list for `CO[C@H]1O[C@@H]2O[C@@]3(C)CC[C@H]4[C@H](C)CC[C@@H]([C@H]1C)[C@@]24OO3` [artemether]?
**A.** artemether released / dissolved within 5 h [2]: almost all; hemolytic effect (in words) [3]: destroyed RBCs as much as the positive control

**Q.** Which half-life [4] does the source give for `C[C@H]1[C@H](OC(=O)CCC(=O)O)O[C@@H]2O[C@@]3(C)CC[C@H]4[C@H](C)CC[C@@H]1[C@@]24OO3` [artesunate] here?
**A.** less than 1 h
